Measurements as given in patent US9771430B2, “Method of treating a metabolic disorder induced by obesity in a subject in need thereof by administering MK2/3 inhibitors” (THE TRUSTEES OF COLUMBIA UNIVERSITY IN THE CITY OF NEW YORK, priority 2011, dated 2017).

Experiments:
CaMKII [1] = format: cell-based, mouse
Procedure: FIG. 1A. CaMKII enzyme activity was assayed in triplicate wells of primary mouse HCs stimulated with 100 nM glucagon (Gluc) or vehicle control (Veh) for the indicated times (*P<0.05 and **P<0.01 vs. Veh; mean±S.E.M.). FIGS. 1B-1J. Extracts of HCs or liver were probed for phospho-CaMKII, total CaMKII, and β-actin by immunoblot assay. FIG. 1B. HCs were incubated with […] glucagon for the indicated times; FIG. 1C. Glucagon was added to HCs that were pre-treated for 1 h with vehicle control (Veh) or 5 μM BAPTA-AM; FIG. 1D. Glucagon was added to HCs that were pre-treated with 0.5 μM xestospongin (XesC) or to HCs from Ip3r1fl/fl mice transduced with adeno-LacZ control or adeno-Cre (bar graph=Ip3r1 mRNA levels); FIG. 1E. Glucagon was added to HCs that were pre-treated for 1 h with vehicle control (Veh) or 10 μM H89. FIG. 1F. […] FIGS. 1G-1J. In vivo experiments. In FIG. 1G, mice were treated for 30 min with 200 μg kg−1 body weight of glucagon i.p., and in FIG. 1H, mice were pre-treated with 10 pmol g−1 xestospongin C or vehicle control i.p. 4 days prior to glucagon treatment. In FIGS. 1I-1J, mice were fed ad libitum or fasted for 12 h, or fasted for 12 h and then re-fed for 4 h.
Total RNA was extracted from hepatocytes using the RNeasy kit (Qiagen). cDNA was synthesized from 2 μg total RNA using oligo (dT) and Superscript II (Invitrogen). Real-time qPCR analysis and western blotting were performed as previously described (Timmins et al., 2009). Nuclear extraction from liver was performed using the Nuclear Extraction Kit from Panomics according to the manufacturer's instructions.
(§1) Immunoblot and RT-qPCR assays were performed as previously described (Timmins et al., 2009). Total RNA was extracted from HCs using the RNeasy kit (Qiagen). cDNA was synthesized from 2 μg total RNA using oligo (dT) and Superscript II (Invitrogen). Nuclear extraction from liver was performed using the Nuclear Extraction Kit from Panomics according to the manufacturer's instructions.

CRTC2 = CRTC2 dephosphorylation and nuclear translocation in primary hepatocytes; format: cell-based, mouse; conditions: inhibitor pre-treatment 1 h, glucagon 100 nM
Procedure: (§2) HEK293T (ATCC) cells were cultured in DMEM containing 10% FBS (HyClone), […] penicillin-streptomycin. Mouse primary hepatocytes were isolated and cultured as previously described (18). Cellular fractionation studies were conducted as previously reported (18). For reporter studies, Ad-CRE-luc infected hepatocytes (1 pfu per cell) were exposed to glucagon (Gcg, 100 nM) for 2˜4 h. For cyclosporine A (CsA, 10 μM) or okadaic acid (OA, 100 nM) or cell permeable calcineurin autoinhibitory peptide (10 μM) or CN585 (100 μM) or Calyculin A (10 nM) or Xestospongin C (Xc, 2 μM) or H89 (30 μM) or BAPTA (50 μM) inhibition, hepatocytes were pre-treated with the inhibitors for one hour. Luciferase activities were normalized to β-galactosidase activity from adenoviral-encoded RSV β-gal. Calcineurin activity (test kit from Enzo Life Sciences) and cellular cAMP levels (test kit from Cayman Chemical Company) were measured according to manufacturer's instructions.
(§3) Immunoblot, immunoprecipitation, and immunostaining assays were performed as described (18). CRTC2, pCREB (Ser133), CREB, pAKT (Thr308), AKT, tubulin, HA, and FLAG antibodies were previously described (18). The antibodies anti-InsP3R1 (A302-158A) and InsP3R3 (A302-160A) were purchased from Bethyl Laboratories, anti-InsP3R2 (ab77838) from Abcam, anti-Calcineurin (610260) from BD Biosciences, anti-GRP78 (ADI-SPA-826-F) from Enzo Life Sciences, anti-phospho-PKA substrate (RRXS/T, 9624), anti-phospho-AKT substrate (RXXS/T, 9614) and CRTC2 (pS171, 2892) from Cell Signaling. CRTC2 (pS275) antibody was employed as described (19).

JNK = conditions: at 100 μM; cited from earlier work
p42 MAP kinase = p42 MAP kinase (Homo sapiens, UniProt P28482); conditions: at 100 μM; cited from earlier work
p42 MAP kinase, sequence (P28482 whole entry): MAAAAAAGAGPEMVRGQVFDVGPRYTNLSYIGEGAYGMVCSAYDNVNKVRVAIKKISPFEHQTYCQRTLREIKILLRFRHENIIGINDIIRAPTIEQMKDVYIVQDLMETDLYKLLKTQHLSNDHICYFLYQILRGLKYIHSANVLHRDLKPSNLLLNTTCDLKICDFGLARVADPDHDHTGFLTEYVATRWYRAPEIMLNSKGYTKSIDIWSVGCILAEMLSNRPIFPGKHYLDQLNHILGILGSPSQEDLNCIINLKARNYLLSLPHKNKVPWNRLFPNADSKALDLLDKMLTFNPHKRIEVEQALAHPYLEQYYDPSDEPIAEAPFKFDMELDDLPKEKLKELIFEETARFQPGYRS

G6pc and Pck1 mRNA = G6pc and Pck1 mRNA (RT-qPCR) in primary mouse hepatocytes; format: cell-based
Procedure: FIG. 32A-E. Related to FIG. 26—p38. FIG. 32A Mice were fed ad libitum or fasted for 12 h. Liver phospho-p38, total p38, p-MK2, total MK-2, and β-actin were assayed by immunoblot. FIG. 32B WT HCs were serum-depleted overnight and then incubated for 5 h with 100 nm glucagon in serum-free media with or without SB202190; or glucagon was added to HCs from P38a^fl/fl mice treated with adeno-LacZ (control) or adeno-Cre. RNA was assayed for G6pc and Pck1 mRNA (*P<0.05; mean±S.E.M.). FIG. 32C HCs from fasting WT and Camk2g^−/− mice were assayed for p-p38, total p38, and β-actin. FIG. 32D WT mice were injected i.p. with 12.5 mg kg^−1 body weight of p38 inhibitor (SB202190) or vehicle control. 12 h later, the mice were injected with an additional dose of SB202190 and fasted overnight. The livers were assayed for nuclear FoxO1, nucleophosmin, p-MK2, total MK-2, and β-actin. The correlation between nuclear FoxO1 and p-MK2 band intensities is shown in the graph. FIG. 32E Adeno-GFP-FoxO1-transduced HCs were serum-depleted overnight, and then incubated for 5 h in serum-free media with SB202190 or vehicle (Veh) control. FoxO1 localization was assessed by indirect immunofluorescence (Bar, 10 μm; *P<0.05; mean±S.E.M.).
FIGS. 53A-B. MK-2 regulates hepatic FoxO1 subcellular localization and hepatic G6Pc and Pck1. FIG. 53A. Adeno-GFP-FoxO1-transduced HCs were serum-depleted overnight, and then incubated for 30 min in serum-free media with 2 uM MK-2 inhibitor or vehicle (Veh) control. FoxO1 localization was assessed by indirect immunofluorescence (Bar, […]; *P<0.005; mean±S.E.M.). FIG. 53B WT HCs were serum-depleted overnight and then incubated for 5 h with 100 nm glucagon in serum-free media with or without MK-2 inhibitor. RNA was assayed for G6pc and Pck1 mRNA (*P<0.005; mean±S.E.M.). MK-2 Inhibitor is from Calbiochem (cat#475864): 2-(2-Quinolin-3-ylpyridin-4-yl)-1,5,6,7-tetrahydro-4H-pyrrolo-[3,2-c]pyridin-4-one.
FIG. 69. MK-2 inhibitor suppresses forskolin-induced Pck1 and G6Pc induction in primary hepatocytes. Primary hepatocytes from WT mice were serum-depleted overnight and then pre-treated with 300 nM MK-2 inhibitor (compound 28) or vehicle for 1 h. Cells were then treated with 2 μM forskolin in serum-free media with or without the inhibitor for 4 h. RNA was assayed for G6pc and Pck1 mRNA by RT-qPCR. *, P<0.0001.
Primary mouse HCs were isolated from 8- to 12-week-old mice as described previously (Matsumoto et al., 2002). For most experiments, the HCs were serum-depleted overnight by incubation in medium containing 0.5% fetal calf serum and were then incubated for 5 h in serum-free media, with individual treatments noted in the figure legends. HCs were transduced with adenoviral constructs 12 h after plating, and experiments were conducted 24 h after transduction. Transfections with WT, 7A- and 9A-Foxo1 were carried out using jetPEI™-hepatocyte DNA transfection reagent (Polyplus-transfection, Inc.) according to manufacturer's instructions.
as §1, with “instructions. […] Whether their origin is alternative splicing or post-translational modification remains to be determined.” for “instructions.”

FoxO1 [2] = assay: Nuclear FoxO1 in mouse liver (immunoblot of nuclear extracts); format: in vivo; conditions: fasting mice, 12.5 mg kg−1 i.p., two doses
Procedure: FIGS. 24A-D. CaMKII regulates hepatic FoxO1 subcellular localization. FIG. 24A HCs from WT and Camk2g^−/− mice were transduced with an adenovirus expressing murine GFP-FoxO1 at an MOI of 2. Cells were serum-depleted overnight and then incubated for 5 h in serum-free media. FoxO1 subcellular localization was assessed by indirect immunofluorescence. Bar, 10 μm. Data are quantified in the right panel. (^#P<0.0005; mean±S.E.M.). […] Bar, 5 μm. FIG. 24C HCs were transduced with adeno-LacZ or CA-CaMKII and then adeno-GFP-FoxO1 as in FIG. 24B. After incubation in serum-depleted medium o.n. and then serum-free medium for 5 h, the cells were treated with 100 nM insulin for the indicated times. FoxO1 subcellular localization was quantified as in FIG. 24B (*P<0.005 vs. LacZ in each group; mean±S.E.M.).
FIG. 32A-E. Related to FIG. 26—p38. FIG. 32A Mice were fed ad libitum or fasted for 12 h. Liver phospho-p38, total p38, p-MK2, total MK-2, and β-actin were assayed by immunoblot. […] FoxO1 localization was assessed by indirect immunofluorescence (Bar, 10 μm; *P<0.05; mean±S.E.M.).
Immunoblot and RT-qPCR assays were performed as previously described (Timmins et al., 2009). […] Whether their origin is alternative splicing or post-translational modification remains to be determined.

FoxO1 [3] = assay: FoxO1 subcellular localization in primary mouse hepatocytes; format: cell-based; conditions: HCs treated with glucagon
Procedure: FIG. 24A HCs from WT and Camk2g^−/− mice were transduced with an adenovirus expressing murine GFP-FoxO1 at an MOI of 2. Cells were serum-depleted overnight and then incubated for 5 h in serum-free media. FoxO1 subcellular localization was assessed by indirect immunofluorescence. Bar, 10 μm. Data are quantified in the right panel. (^#P<0.0005; mean±S.E.M.). FIG. 24B HCs were transduced with adenoviral vectors expressing LacZ, CA-CaMKII, or KD-CaMKII at an MOI of 20 and then transduced 4 h later with adeno-GFP-FoxO1, followed by fluorescence microscopy and quantification as in FIG. 24A (^#P<0.005 vs. LacZ; mean±S.E.M.). Bar, 5 μm. FIG. 24C HCs were transduced with adeno-LacZ or CA-CaMKII and then adeno-GFP-FoxO1 as in FIG. 24B. After incubation in serum-depleted medium o.n. and then serum-free medium for 5 h, the cells were treated with 100 nM insulin for the indicated times. FoxO1 subcellular localization was quantified as in FIG. 24B (*P<0.005 vs. LacZ in each group; mean±S.E.M.).
Primary hepatocytes from WT mice were transduced with adeno-LacZ (LacZ) or adeno-DN-MK2 (DN-MK2) at an MOI of 1. […]

cytosolic free calcium = assay: Calcium mobilization in primary hepatocytes (Fura-2 imaging); format: cell-based, mouse; conditions: cells expressing wild-type InsP3R1
Procedure: Mouse primary hepatocytes were plated on glass coverslips and loaded with 5 μM Fura-2 acetoxymethyl ester (Molecular Probes) in the presence of 0.025% (w/v) pluronic F127 (Sigma-Aldrich) in Media 199 (Mediatech) for 30 minutes. […] The ratio of fluorescence intensity at the two excitation wavelengths was calculated after subtracting background fluorescence. [Ca2+]I (cytosolic free calcium concentration) was calculated using a Fura-2 calcium imaging calibration kit (Invitrogen). Images were collected and analyzed using the MetaFluor software package (Universal Imaging Corp.). Graphs represent average responses from groups of 30-40 individual cells from representative single experiments. Bar graphs represent average responses (fold over average baseline) from 150-200 cells per condition. All experiments were repeated at least three times with similar results.

[4] = tested on: InsP3R1, InsP3R2 and InsP3R3; assay: InsP3R phosphorylation in hepatocytes (phospho-substrate antiserum immunoblot); format: cell-based, mouse; conditions: phospho-AKT substrate antiserum
calcineurin = assay: Calcineurin activity in primary hepatocytes; format: cell-based, mouse; conditions: cells expressing wild-type InsP3R1
Procedure: as §2

[5] = tested on: CRE-luciferase (luc) reporter; assay: CRE-luciferase reporter activity in primary hepatocytes; format: cell-based, mouse; conditions: response to glucagon
Procedure: as §2

CREB = assay: PKA-mediated phosphorylation of CREB in hepatocytes; format: cell-based, mouse
Procedure: as §3

CaMKII [6] = conditions: WT Mφs, 4 h, 5 μM
Procedure: Immunoblots of pThr287-CaMKII in FIG. 15A WT, Insr−/−, and ob/obMφs±FC loading or oxLDL and FIG. 15B WT Mφs±4 h treatment with 5 μM U0126 ERK inhibitor.

C1CNC1 [azetidine]
p-CaMKIIγ in HCs (CaMKII [1]; ER stress activation): increased

C=C1[C@@H](O)[C@@H]2O[C@]3(CC[C@H](/C=C/[C@@H](C)[C@@H]4CC(C)=C[C@@]5(O[C@H](C[C@@](C)(O)C(=O)O)CC[C@H]5O)O4)O3)CC[C@H]2O[C@@H]1[C@@H](O)C[C@H](C)[C@H]1O[C@@]2(CCCCO2)CC[C@H]1C [okadaic acid]
glucagon-induced dephosphorylation (and nuclear translocation) of CRTC2 (CRTC2): did not

C[S+]([O-])c1ccc(-c2nc(-c3ccncc3)c(-c3ccc(F)cc3)[nH]2)cc1 (stereo not drawn) [SB203580]
inhibition of JNK (JNK): does not significantly inhibit
inhibition of p42 MAP kinase (p42 MAP kinase): does not significantly inhibit

Oc1ccc(-c2nc(-c3ccncc3)c(-c3ccc(F)cc3)[nH]2)cc1 [SB202190]
expression of G6pc and Pck1 (G6pc and Pck1 mRNA; glucagon-stimulated HC): blocked
nuclear FoxO1 in liver as a function of p38 inhibition (p-MK2) (FoxO1 [2]): clear decrease
nuclear GFP-FoxO1 (FoxO1 [3]): decreased

insulin: hormone
glucagon-dependent increases in calcium mobilization (cytosolic free calcium): reduced
InsP3R phosphorylation [4]: increased
glucagon-dependent increases in calcineurin activation (calcineurin): reduced

C=C[C@@]1(C)CC(=O)[C@]2(O)[C@@]3(C)[C@@H](O)CCC(C)(C)[C@@H]3[C@H](O)[C@H](OC(C)=O)[C@@]2(C)O1 [forskolin]
G6pc mRNA, untreated WT HCs lower than forskolin-treated WT HCs (G6pc and Pck1 mRNA; forskolin 10 μM): ~165 fold
Pck1 mRNA, untreated WT HCs lower than forskolin-treated WT HCs (G6pc and Pck1 mRNA; forskolin 10 μM): ~2500 fold

CC(=O)OCOC(=O)CN(CC(=O)OCOC(C)=O)c1ccccc1OCCOc1ccccc1N(CC(=O)OCOC(C)=O)CC(=O)OCOC(C)=O [BAPTA-AM, 1,2-bis[2-aminophenoxy]ethane-N,N,N′,N′-tetraacetic acid tetrakis[acetoxymethyl ester]]
glucagon-induced CaMKII phosphorylation (CaMKII [1]; HCs pre-treated with inhibitor, then glucagon): markedly decreased
glucagon-induced dephosphorylation (and nuclear translocation) of CRTC2 (CRTC2): disrupted
CRE-luciferase (luc) reporter activity / activation [5]: disrupted
PKA-mediated phosphorylation of CREB in response to glucagon (CREB): did not block

N#CC(=C(/N)Sc1ccccc1N)/C(C#N)=C(\N)Sc1ccccc1N [U0126]
p-CaMKII (CaMKII [6]): increase

O=C1NCCc2[nH]c(-c3ccnc(-c4cnc5ccccc5c4)c3)cc21 [MK2 inhibitor, 2-(2-Quinolin-3-ylpyridin-4-yl)-1,5,6,7-tetrahydro-4H-pyrrolo-[3,2-c]pyridin-4-one]
nuclear FoxO1 and induction of genes involved in hepatic glucose production (G6pc and Pck1 mRNA; 2 uM MK-2 inhibitor, glucagon 100 nm 5 h (FIG. 53)): importance of MK2 in both nuclear FoxO1 and in induction of genes
